In PubChem BioAssay AID1195 (EPA DSSTox, 2008):

Tested on: human maximum recommended daily dose, FDA database
Experiment: DSSTox (FDAMDD) FDA Maximum (Recommended) Daily Dose Database
Settings: active compounds read low
In short: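 MRDD values come from clinical trials with daily oral dosing, usually for 3–12 months, for the average adult, in mg/day converted to mg/kg-bw/day assuming 60 kg. Antineoplastic mg/m2 doses are divided by 37. Activity score maps log10(1/MRDD mmol) onto 1–100.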

[1] = TherapeuticCategory: antibacterial
[2] = TherapeuticCategory: antidiabetic

For `CC[C@H]1OC(=O)[C@H](C)[C@@H](O[C@H]2C[C@@](C)(OC)[C@@H](O)[C@H](C)O2)[C@H](C)[C@@H](O[C@@H]2O[C@H](C)C[C@H](N(C)C)[C@H]2OC(C)=O)[C@](C)(O)C[C@@H](C)C(=O)[C@H](C)[C@@H](O)[C@]1(C)O`, the maximum recommended daily dose (mmol/kg-bw/day) [1] was 0.0629.

`CCOC(C)=O` gave a maximum recommended daily dose (mmol/kg-bw/day) (TherapeuticCategory: none) of 0.284.

`CN1C(=O)CCS(=O)(=O)C1c1ccc(Cl)cc1` (stereo not drawn) was tested, and the maximum recommended daily dose (mmol/kg-bw/day) (TherapeuticCategory: anxiolytic, skeletal muscle relaxant) was 0.0244.

Work on `C[C@]12C=CC(=O)C=C1CC[C@@H]1[C@@H]2[C@@H](O)C[C@@]2(C)[C@H]1CC[C@]2(O)C(=O)CO` yielded a maximum recommended daily dose (mmol/kg-bw/day) (TherapeuticCategory: glucocorticoid) of 0.00924.

Work on `C[C@H](CN1CCOCC1)C(C(=O)N1CCCC1)(c1ccccc1)c1ccccc1` yielded a maximum recommended daily dose (mmol/kg-bw/day) (TherapeuticCategory: narcotic analgesic) of 0.000848.

`CN(C)CCCOC1(Cc2ccccc2)CCCCCC1` gave a maximum recommended daily dose (mmol/kg-bw/day) (TherapeuticCategory: vasodilator) of 0.0345.

With `CCCN(CCC)S(=O)(=O)c1ccc(C(=O)O)cc1` the maximum recommended daily dose (mmol/kg-bw/day) (TherapeuticCategory: uricosuric) was 0.0585.

With `NCCCNCCSP(=O)(O)O` the maximum recommended daily dose (mmol/kg-bw/day) (TherapeuticCategory: mucolytic) was 0.115.

Compound `C[C@H](N)[C@H](O)c1cccc(O)c1` has a maximum recommended daily dose (mmol/kg-bw/day) (TherapeuticCategory: adrenergic) of 0.0498.

Compound `O=C(NCC1CCCCN1)c1cc(OCC(F)(F)F)ccc1OCC(F)(F)F` (stereo not drawn) has a maximum recommended daily dose (mmol/kg-bw/day) (TherapeuticCategory: antiarrhythmic) of 0.0121.

For `O=C(O)c1c(Cl)c(Cl)c(Cl)c(Cl)c1-c1c2cc(I)c(=O)c(I)c-2oc2c(I)c(O)c(I)cc12`, the maximum recommended daily dose (mmol/kg-bw/day) (TherapeuticCategory: diagnostic aid) was 0.00197.

In the case of `CC(=O)[C@H]1CC[C@H]2[C@@H]3C=CC4=CC(=O)CC[C@@]4(C)[C@@H]3CC[C@]12C`, the maximum recommended daily dose (mmol/kg-bw/day) (TherapeuticCategory: progestogen) is reported as 0.0016.

`C[C@@H]1O[C@@H](O[C@@H]2C=C3CC[C@@H]4[C@H](CC[C@]5(C)[C@@H](c6ccc(=O)oc6)CC[C@]45O)[C@@]3(C)CC2)[C@H](O)[C@H](O)[C@H]1O` showed a maximum recommended daily dose (mmol/kg-bw/day) (TherapeuticCategory: cardiotonic) of 7.86e-05.

With `CC(C)(C)c1nnc(NS(=O)(=O)c2ccccc2)s1` the maximum recommended daily dose (mmol/kg-bw/day) [2] was 0.042.

Work on `N[C@@H]1[C@@H](O)[C@H](O)[C@@H](CO)O[C@H]1O` yielded a maximum recommended daily dose (mmol/kg-bw/day) (TherapeuticCategory: antiarthritic) of 0.558.

Compound `CC1NCCOC1c1ccccc1` (stereo not drawn) has a maximum recommended daily dose (mmol/kg-bw/day) (TherapeuticCategory: anorexic, CNS stimulant) of 0.00705.

`CC(=O)OCC(=O)[C@H]1CC[C@H]2[C@@H]3CCC4=CC(=O)CC[C@]4(C)[C@H]3CC[C@]12C` showed a maximum recommended daily dose (mmol/kg-bw/day) (TherapeuticCategory: mineralcorticoid) of 0.00448.

`OCCN1C[C@H](O)[C@@H](O)[C@H](O)[C@H]1CO` showed a maximum recommended daily dose (mmol/kg-bw/day) [2] of 0.0241.

`Cc1ccc(C(=O)c2cc(O)c(O)c([N+](=O)[O-])c2)cc1` was tested, and the maximum recommended daily dose (mmol/kg-bw/day) (TherapeuticCategory: antidepressant, catechol-O-methyltransferase inhibitor) was 0.0122.

With `Cn1c(=O)c2[nH]cnc2n(C)c1=O` the maximum recommended daily dose (mmol/kg-bw/day) (TherapeuticCategory: bronchodilator) was 0.0481.

Compound `CCCCCCCCCCCCCCCC(=O)OCC(=O)[C@@]1(O)[C@H](C)C[C@H]2[C@@H]3CCC4=CC(=O)C=C[C@]4(C)[C@@]3(F)[C@@H](O)C[C@@]21C` has a maximum recommended daily dose (mmol/kg-bw/day) (TherapeuticCategory: glucocorticoid, anti inflammatory) of 0.000238.

`CCN1/C(=C/C=C/C=C/c2sc3ccccc3[n+]2CC)Sc2ccccc21` gave a maximum recommended daily dose (mmol/kg-bw/day) (TherapeuticCategory: anthelmintic) of 0.00642.

`C[C@]12C=CC(=O)C=C1CC[C@@H]1[C@@H]2[C@@H](O)C[C@@]2(C)[C@H]1CC[C@]2(O)C(=O)COC(=O)CCCc1ccc(N(CCCl)CCCl)cc1` showed a maximum recommended daily dose (mmol/kg-bw/day) (TherapeuticCategory: antineoplastic) of 0.00515.

`COc1ccnc(CS(=O)c2nc3ccc(OC(F)F)cc3[nH]2)c1OC` (stereo not drawn) showed a maximum recommended daily dose (mmol/kg-bw/day) (TherapeuticCategory: antiulcerative) of 0.00174.

`NS(=O)(=O)c1cc(C(=O)O)c(NCc2ccco2)cc1Cl` showed a maximum recommended daily dose (mmol/kg-bw/day) (TherapeuticCategory: diuretic, antihypertensive) of 0.0302.

Work on `CCn1cc(C(=O)O)c(=O)c2ccc(C)nc21` yielded a maximum recommended daily dose (mmol/kg-bw/day) [1] of 0.287.

With `O=C(O)c1cccnc1Nc1cccc(C(F)(F)F)c1` the maximum recommended daily dose (mmol/kg-bw/day) (TherapeuticCategory: anti inflammatory) was 0.0443.

In the case of `CC(COc1ccccc1)N(CCCl)Cc1ccccc1` (stereo not drawn), the maximum recommended daily dose (mmol/kg-bw/day) (TherapeuticCategory: antihypertensive) is reported as 0.00658.
